Assay results published in patent US5705499A, “8-arylalkyl- and 8-arylheteroalkyl-5,11-dihydro-6H-dipyrido[3,2-B:2',3'-e][1]diazepines and their use in the treatment of HIV-1 infection” (Boehringer Ingelheim Pharmaceuticals, Inc., priority 1996, dated 1998).
Read-outs that look alike come from different tables or passages of the source.

Key:
[1] = test system: HTLV-IIIB strain of HIV-1 (in C8166-45 cells); assay: Syncytia (human T-cell culture) Assay; type: cell-based
Experimental: Formation of syncytia is a feature of in vitro cultures of CD4+ T-cells infected with HIV-1. In this assay (1), T-cells are treated with a putative replication inhibiting compound and then infected with HIV-1. After incubation, the culture is checked for the formation of syncytia. The absence or reduction in the number of syncytia is used as a measure of the test compound's ability to inhibit HIV replication.
The target cells, designated C8166-45, are a fusion of umbilical blood lymphocytes and T-cells from leukemia-lymphoma patients and are established at an initial density of 5×10^4 per 90 μl in RPMI 1640 (+10% fetal bovine serum) culture medium in 96 well flat bottom plates. A selected amount of test compound, dissolved in DMSO, is included. 50 TCID50 's (the dose that results in induced effect in 50% of test cultures) of the HTLV-IIIB strain of HIV-1 (3) are inoculated into each culture. Control cultures receive compound or virus only.
The cultures are incubated for 72 hours (4), at 37° C. with 5% carbon dioxide, and then visually examined for the frequency and distribution of virus-induced giant cell syncytia. The percent inhibition by the test compound is determined by comparison with control values.

C8166-45 cell line = assay: MTT Assay (cytotoxicity); type: cell-based, human; conditions: C8166-45 cells, five days
[2] = Human immunodeficiency virus 1, T-cell, C8166-45 cells, HTLV-IIIB strain, 72 hours, read-out: Syncytia Assay IC50

Structure (SMILES)	IC50 ([1]; Human immunodeficiency virus 1, IIIB, T-cell, 72 h, read-out: Syncytia Assay IC50 (μM))	IC50 [1, 2]	MTT Assay CC30 (C8166-45 cell line)
CCN1c2ncc(COc3cccc(N)c3)cc2C(=O)N(C)c2ccc(Cl)nc21 [Example 99, 8-(3-aminophenyloxy)methyl-2-chloro-5,11-dihydro-11-ethyl-5-methyl-6H-dipyrido[3,2-b:2',3'-e][1,4]diazepin-6-one]	0.02 µM		
CCN1c2ncc(CCOc3cc[n+]([O-])cc3)cc2C(=O)N(C)c2ccc(Cl)nc21 [Example 96, 2-chloro-5,11-dihydro-11-ethyl-5-methyl-8-[2-(N-oxo-pyrid-4-yloxy)ethyl]-6H-dipyrido[3,2-b:2',3'-e[]1,4]diazepin-6-one]		0.03 µM	> 256 µM
CCN1c2ncc(COc3ccncc3)cc2C(=O)N(C)c2ccc(Cl)nc21 [Example 124, 2-Chloro-5,11-dihydro-11-ethyl-5-methyl-8-(pyrid-4-yloxy)methyl-6H-dipyrido[3,2-b:2',3'-e][1,4]diazepin-6-one]		0.006 µM	> 120 µM
CCN1c2ncc(CCc3ccccc3)cc2C(=O)N(C)c2cccnc21 [Example 42, 5,11-Dihydro-11-ethyl-5methyl-8-(2-phenylethyl)-6H-dipyrido[3,2-b:2',3'-e][1,4]diazepin-6-one]		0.03 µM	
CCN1c2ncc(CCOc3ccncc3)cc2C(=O)N(C)c2ccc(Cl)nc21 [Example 127, 2-chloro-5,11-dihydro-11-ethyl-5-methyl-8-[2-(pyrid-4-yloxy)ethyl]-6H-dipyrido[3,2-b:2',3'-e][1,4]diazepin-6-one]		0.003 µM	55 µM
CCN1c2ncc(COc3ccccc3)cc2C(=O)N(C)c2ccc(Cl)nc21 [Example 100, 2-chloro-5,11-dihydro-11-ethyl-5-methyl-8-(phenyloxy)methyl-6H-dipyrido[3,2-b:2',3'-e][1,4]diazepin-6-one]		0.05 µM	> 60 µM
CCN1c2ncc(COc3cccc(C(N)=O)c3)cc2C(=O)N(C)c2ccc(Cl)nc21 [Example 113, 8-(3-(aminocarbonyl)phenyloxy)methyl-2-chloro-5,11-dihydro-11-ethyl-5-methyl-6H-dipyrido[3,2-b:2',3'-e][1,4]diazepin-6-one]			130 µM
CCN1c2ncc(COc3cccc(C(=O)O)c3)cc2C(=O)N(C)c2ccc(Cl)nc21 [Example 112, 2-chloro-5,11-dihydro-11-ethyl-8-(3-(carboxy)phenyloxy)methyl-5-methyl-6H-dipyrido[3,2-b:2',3'-e][1,4]diazepin-6-one]			250 µM
CN1C(=O)c2cc(CCc3ccncc3)cnc2N(C2CC2)c2nc(Cl)ccc21 [Example 37, 2Chloro-11-cyclopropyl-5,11-dihydro-5-methyl-8-[2-(pyrid-4-yl)ethyl]-6H-dipyrido[3,2-b:2',3'-e][1,4]diazepin-6-one]			> 60 µM
CCN1c2ncc(CN(C)c3ccccc3)cc2C(=O)N(C)c2ccc(Cl)nc21 [Example 116, 2-chloro-5,11-dihydro-11-ethyl-5-methyl-8-(N-methylphenylamino)methyl-6H-dipyrido[3,2-b:2',3'-e][1,4]diazepin-6-one]			> 60 µM
CCN1c2ncc(CSc3ccccc3)cc2C(=O)N(C)c2ccc(Cl)nc21 [Example 117, 2-chloro-5,11-dihydro-11-ethyl-5-methyl-8-(phenylthio)methyl-6H-dipyrido[3,2-b:2',3'-e][1,4]diazepin-6-one]		0.005 µM	60 µM
CCN1c2ncc(CCc3ccnc(CO)c3)cc2C(=O)N(C)c2ccc(Cl)nc21 [Example 67, 2-Chloro-5,11-dihydro-11-ethyl-5-methyl-8-[2-(2-hydroxymethyl-4-pyridyl)ethyl]-6H -dipyrido[3,2-b:2',3'-e][1,4]diazepin-6-one]			128 µM
CCN1c2ncc(COc3ccc(O)cc3)cc2C(=O)N(C)c2ccc(Cl)nc21 [Example 105, 2-chloro-5,11-dihydro-11-ethyl-8-(4-hydroxyphenyloxy)methyl-5-methyl-6H-dipyrido[3,2-b:2',3'-e][1,4]diazepin-6-one]			40 µM
CCN1c2ncc(O)cc2C(=O)N(C)c2ccc(Cl)nc21 [Example 89, 2-chloro-5,11-dihydro-11-ethyl-8-hydroxy-5-methyl-6H-dipyrido[3,2-b:2',3'-e[]1,4]diazepin-6-one]			130 µM
CCN1c2ncc(CCc3cccc4[nH]ccc34)cc2C(=O)N(C)c2cccnc21 [Example 29, 5,11-Dihydro-11-ethyl-5methyl-8-[2-(4-indolyl)ethyl]-6H-dipyrido[3,2-b:2',3'-e][1,4]diazepin-6-one]			> 60 µM
CCN1c2ncc(C(C)O)cc2C(=O)N(C)c2ccc(Cl)nc21 (stereo not drawn) [Example 86, 2-chloro-5,11-dihydro-11-ethyl-8-(α-hydroxy)ethyl-5-methyl-6H-dipyrido[3,2-b:2',3'-e][1,4]diazepin-6-one]			256 µM
CCN1c2ncc(CCl)cc2C(=O)N(C)c2ccc(Cl)nc21 [Example 82, 2-chloro-8-chloromethyl-5,11-dihydro-11-ethyl-5-methyl-6H-dipyrido[3,2-b:2',3'-e][1,4]diazepin-6-one]			> 256 µM
CCN1c2ncc(CCc3ccccc3)cc2C(=O)N(C)c2ccc(Cl)nc21 [Example 45, 2Chloro-5,11-dihydro-11-ethyl-5-methyl-8-(2-phenylethyl)-6H-dipyrido[3,2-b:2',3'-e][1,4]diazepin-6-one]		0.01 µM	> 60 µM
CCN1c2ncc(CCc3cccc(NC(N)=O)c3)cc2C(=O)N(C)c2ccc(Cl)nc21 [Example 26, 2Chloro-5,11-dihydro-11-ethyl-5-methyl-8-2-[(3-ureidophenyl)ethyl]-6H-dipyrido[3,2-b:2',3'-e][1,4]diazepin-6-one]			35 µM
CCN1c2ncc(OCc3ccccc3)cc2C(=O)N(C)c2ccc(Cl)nc21 [Example 90, 2-chloro-5,11-dihydro-11-ethyl-5-methyl-8-phenylmethoxy-6H-dipyrido[3,2-b:2',3'-e][1,4]diazepin-6-one]			> 60 µM
CCN1c2ncc(CC(O)c3ccncc3)cc2C(=O)N(C)c2ccc(F)nc21 (centres unmarked) [Example 40, 5,11-Dihydro-11-ethyl-2-fluoro-8-[2-hydroxy-2-(pyrid-4-yl)ethyl]-5-methyl-6H-dipyrido[3,2-b:2',3'-e][1,4]diazepin-6-one]			> 20 µM
CCN1c2ncc(COc3cccnc3)cc2C(=O)N(C)c2ccc(Cl)nc21 [Example 107, 2-chloro-5,11-dihydro-11-ethyl-5-methyl-8-(3-pyridyloxy)methyl-6H-dipyrido[3,2-b:2',3'-e][1,4]diazepin-6-one]			> 256 µM
CCN1c2ncc(COc3ccc(F)cc3)cc2C(=O)N(C)c2ccc(Cl)nc21 [Example 103, 2-chloro-5,11-dihydro-11-ethyl-8-(4-fluorophenyloxy)methyl-5-methyl-6H-dipyrido[3,2-b:2',3'-e][1,4]diazepin-6-one]			> 60 µM
CCN1c2ncc([C@@H]3O[C@@H]3c3ccccc3)cc2C(=O)N(C)c2ccc(Cl)nc21 (relative stereo) [Example 46, 2Chloro-5,11-dihydro-11-ethyl-5-methyl-8-(2-phenyloxiranyl)-6H-dipyrido[3,2-b:2',3'-e][1,4]diazepin-6-one]			> 30 µM
CCN1c2ncc(CCOc3ccncc3)cc2C(=O)N(C)c2cccnc21 [Example 128, 5,11-dihydro-11-ethyl-5-methyl-8-(pyrid-4-yloxy)ethyl-6H-dipyrido[3,2-b:2',3'-e][1,4]diazepin-6-one]			> 256 µM
CCN1c2ncc(COc3cc[n+]([O-])c(C)c3)cc2C(=O)N(C)c2ccc(Cl)nc21 [Example 94, 2-chloro-5,11-dihydro-11-ethyl-5-methyl-8-(N-oxo-2-methylpyrid-4-yloxy)methyl-6H-dipyrido[3,2-b:2',3'-e][1,4]diazepin-6-one]			200 µM
